From ChEMBL document CHEMBL4507268 (2021)

Columns and labels:
[1] = target: Sodium-dependent dopamine transporter (Homo sapiens) (UniProt Q01959); conditions: Compound concentration 10.0 uM
[2] = target: T1, Dual specificity tyrosine-phosphorylation-regulated kinase 2 (Homo sapiens) (UniProt Q92630); conditions: Compound concentration 1.0 uM
T1 sequence (whole entry): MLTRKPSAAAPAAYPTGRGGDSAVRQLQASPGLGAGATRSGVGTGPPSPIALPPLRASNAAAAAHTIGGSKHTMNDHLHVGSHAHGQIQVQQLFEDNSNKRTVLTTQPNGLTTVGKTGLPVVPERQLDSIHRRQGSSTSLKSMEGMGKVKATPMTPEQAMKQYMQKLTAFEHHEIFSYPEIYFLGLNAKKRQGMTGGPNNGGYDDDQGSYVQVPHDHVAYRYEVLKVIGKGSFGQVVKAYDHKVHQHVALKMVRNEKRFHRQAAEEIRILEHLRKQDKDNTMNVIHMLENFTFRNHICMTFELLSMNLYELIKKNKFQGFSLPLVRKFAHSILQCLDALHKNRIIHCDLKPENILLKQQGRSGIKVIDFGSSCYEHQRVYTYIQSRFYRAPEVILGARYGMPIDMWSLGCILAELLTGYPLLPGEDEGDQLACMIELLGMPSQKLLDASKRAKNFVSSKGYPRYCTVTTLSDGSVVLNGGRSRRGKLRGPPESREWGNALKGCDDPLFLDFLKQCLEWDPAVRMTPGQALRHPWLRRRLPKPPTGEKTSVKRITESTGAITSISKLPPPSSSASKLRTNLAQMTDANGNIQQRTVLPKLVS

[3] = target: Serine/threonine-protein kinase 25 (Homo sapiens) (UniProt O00506); conditions: Compound concentration 1.0 uM
[4] = target: Phosphatidylinositol 4-phosphate 5-kinase type-1 gamma (Homo sapiens) (UniProt O60331); conditions: Compound concentration 1.0 uM
[5] = target: Calcium/calmodulin-dependent protein kinase type II subunit alpha (Homo sapiens) (UniProt Q9UQM7); conditions: Compound concentration 1.0 uM
[6] = target: Phosphatidylinositol 4-phosphate 3-kinase C2 domain-containing subunit alpha (Homo sapiens) (UniProt O00443); conditions: Compound concentration 1.0 uM
[7] = target: CDK3/cyclin E (Homo sapiens) (UniProt P24864+O96020+Q00526); conditions: Compound concentration 1.0 uM
[8] = target: Mitogen-activated protein kinase kinase kinase kinase 1 (Homo sapiens) (UniProt Q92918); conditions: Compound concentration 1.0 uM
[9] = target: T2, Phosphorylase b kinase regulatory subunit alpha, liver isoform (Homo sapiens) (UniProt P46019); conditions: Compound concentration 1.0 uM
T2 sequence (whole entry): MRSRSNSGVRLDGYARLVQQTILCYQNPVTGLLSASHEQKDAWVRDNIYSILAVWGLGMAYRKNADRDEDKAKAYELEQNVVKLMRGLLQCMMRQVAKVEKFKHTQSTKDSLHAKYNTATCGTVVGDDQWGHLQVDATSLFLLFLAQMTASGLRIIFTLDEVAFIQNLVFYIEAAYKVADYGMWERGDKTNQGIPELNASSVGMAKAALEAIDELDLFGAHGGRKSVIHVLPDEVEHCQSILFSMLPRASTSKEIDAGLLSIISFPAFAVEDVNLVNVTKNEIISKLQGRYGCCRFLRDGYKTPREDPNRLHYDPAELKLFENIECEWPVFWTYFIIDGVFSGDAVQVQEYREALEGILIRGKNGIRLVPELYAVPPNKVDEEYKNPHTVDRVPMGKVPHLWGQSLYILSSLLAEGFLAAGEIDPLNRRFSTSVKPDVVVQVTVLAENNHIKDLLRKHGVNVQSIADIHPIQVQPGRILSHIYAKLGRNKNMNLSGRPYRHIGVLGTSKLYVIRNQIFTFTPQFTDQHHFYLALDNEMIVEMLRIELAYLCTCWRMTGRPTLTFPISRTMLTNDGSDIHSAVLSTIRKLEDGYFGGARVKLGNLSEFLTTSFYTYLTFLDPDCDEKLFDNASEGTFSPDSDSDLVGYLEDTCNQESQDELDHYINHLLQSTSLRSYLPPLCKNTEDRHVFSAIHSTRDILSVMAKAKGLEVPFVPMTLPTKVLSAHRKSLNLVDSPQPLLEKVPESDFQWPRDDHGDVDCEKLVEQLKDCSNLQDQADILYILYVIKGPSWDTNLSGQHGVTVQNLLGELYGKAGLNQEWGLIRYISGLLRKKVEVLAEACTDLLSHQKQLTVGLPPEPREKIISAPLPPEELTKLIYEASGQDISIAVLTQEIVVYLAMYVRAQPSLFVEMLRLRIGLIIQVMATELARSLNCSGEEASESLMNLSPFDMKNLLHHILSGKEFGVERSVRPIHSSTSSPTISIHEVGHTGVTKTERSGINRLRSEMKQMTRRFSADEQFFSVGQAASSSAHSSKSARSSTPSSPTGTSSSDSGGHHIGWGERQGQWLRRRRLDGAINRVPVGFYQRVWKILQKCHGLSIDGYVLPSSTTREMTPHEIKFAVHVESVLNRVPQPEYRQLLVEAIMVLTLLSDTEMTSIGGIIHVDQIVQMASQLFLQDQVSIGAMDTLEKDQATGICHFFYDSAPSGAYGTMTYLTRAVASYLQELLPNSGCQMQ

[10] = target: Calcium/calmodulin-dependent protein kinase type II subunit beta (Homo sapiens) (UniProt Q13554); conditions: Compound concentration 1.0 uM
[11] = target: CDK6/cyclin D3 (Homo sapiens) (UniProt P30281+Q00534); conditions: Compound concentration 1.0 uM
[12] = target: Serine/threonine-protein kinase Nek4 (Homo sapiens) (UniProt P51957); conditions: Compound concentration 1.0 uM
[13] = target: Protein kinase C eta type (Homo sapiens) (UniProt P24723); conditions: Compound concentration 1.0 uM
[14] = target: Serine/threonine-protein kinase A-Raf (Homo sapiens) (UniProt P10398); conditions: Compound concentration 1.0 uM
[15] = target: Insulin receptor-related protein (Homo sapiens) (UniProt P14616); conditions: Compound concentration 1.0 uM

Chain of Protein kinase C eta type (Homo sapiens) (P24723 whole entry): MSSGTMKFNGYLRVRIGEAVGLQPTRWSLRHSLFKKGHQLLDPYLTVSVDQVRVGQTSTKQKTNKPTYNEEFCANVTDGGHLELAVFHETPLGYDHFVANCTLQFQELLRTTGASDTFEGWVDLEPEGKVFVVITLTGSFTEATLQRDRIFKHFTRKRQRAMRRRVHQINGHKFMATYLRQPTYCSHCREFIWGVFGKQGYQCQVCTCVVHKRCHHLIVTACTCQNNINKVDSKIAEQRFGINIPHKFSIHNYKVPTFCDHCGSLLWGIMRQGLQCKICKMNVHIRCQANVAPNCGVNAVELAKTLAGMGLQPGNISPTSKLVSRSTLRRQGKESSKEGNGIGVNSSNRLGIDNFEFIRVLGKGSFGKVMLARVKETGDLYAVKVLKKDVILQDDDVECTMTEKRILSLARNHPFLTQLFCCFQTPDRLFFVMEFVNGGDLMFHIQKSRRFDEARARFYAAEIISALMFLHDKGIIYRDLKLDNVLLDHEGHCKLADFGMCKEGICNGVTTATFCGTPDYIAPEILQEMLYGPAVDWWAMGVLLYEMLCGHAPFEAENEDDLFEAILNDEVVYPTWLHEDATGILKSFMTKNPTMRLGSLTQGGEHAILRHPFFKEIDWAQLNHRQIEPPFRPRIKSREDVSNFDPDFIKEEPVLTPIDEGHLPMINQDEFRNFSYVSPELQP
Chain of Phosphatidylinositol 4-phosphate 3-kinase C2 domain-containing subunit alpha (Homo sapiens) (O00443 whole entry, the tested form may be a part): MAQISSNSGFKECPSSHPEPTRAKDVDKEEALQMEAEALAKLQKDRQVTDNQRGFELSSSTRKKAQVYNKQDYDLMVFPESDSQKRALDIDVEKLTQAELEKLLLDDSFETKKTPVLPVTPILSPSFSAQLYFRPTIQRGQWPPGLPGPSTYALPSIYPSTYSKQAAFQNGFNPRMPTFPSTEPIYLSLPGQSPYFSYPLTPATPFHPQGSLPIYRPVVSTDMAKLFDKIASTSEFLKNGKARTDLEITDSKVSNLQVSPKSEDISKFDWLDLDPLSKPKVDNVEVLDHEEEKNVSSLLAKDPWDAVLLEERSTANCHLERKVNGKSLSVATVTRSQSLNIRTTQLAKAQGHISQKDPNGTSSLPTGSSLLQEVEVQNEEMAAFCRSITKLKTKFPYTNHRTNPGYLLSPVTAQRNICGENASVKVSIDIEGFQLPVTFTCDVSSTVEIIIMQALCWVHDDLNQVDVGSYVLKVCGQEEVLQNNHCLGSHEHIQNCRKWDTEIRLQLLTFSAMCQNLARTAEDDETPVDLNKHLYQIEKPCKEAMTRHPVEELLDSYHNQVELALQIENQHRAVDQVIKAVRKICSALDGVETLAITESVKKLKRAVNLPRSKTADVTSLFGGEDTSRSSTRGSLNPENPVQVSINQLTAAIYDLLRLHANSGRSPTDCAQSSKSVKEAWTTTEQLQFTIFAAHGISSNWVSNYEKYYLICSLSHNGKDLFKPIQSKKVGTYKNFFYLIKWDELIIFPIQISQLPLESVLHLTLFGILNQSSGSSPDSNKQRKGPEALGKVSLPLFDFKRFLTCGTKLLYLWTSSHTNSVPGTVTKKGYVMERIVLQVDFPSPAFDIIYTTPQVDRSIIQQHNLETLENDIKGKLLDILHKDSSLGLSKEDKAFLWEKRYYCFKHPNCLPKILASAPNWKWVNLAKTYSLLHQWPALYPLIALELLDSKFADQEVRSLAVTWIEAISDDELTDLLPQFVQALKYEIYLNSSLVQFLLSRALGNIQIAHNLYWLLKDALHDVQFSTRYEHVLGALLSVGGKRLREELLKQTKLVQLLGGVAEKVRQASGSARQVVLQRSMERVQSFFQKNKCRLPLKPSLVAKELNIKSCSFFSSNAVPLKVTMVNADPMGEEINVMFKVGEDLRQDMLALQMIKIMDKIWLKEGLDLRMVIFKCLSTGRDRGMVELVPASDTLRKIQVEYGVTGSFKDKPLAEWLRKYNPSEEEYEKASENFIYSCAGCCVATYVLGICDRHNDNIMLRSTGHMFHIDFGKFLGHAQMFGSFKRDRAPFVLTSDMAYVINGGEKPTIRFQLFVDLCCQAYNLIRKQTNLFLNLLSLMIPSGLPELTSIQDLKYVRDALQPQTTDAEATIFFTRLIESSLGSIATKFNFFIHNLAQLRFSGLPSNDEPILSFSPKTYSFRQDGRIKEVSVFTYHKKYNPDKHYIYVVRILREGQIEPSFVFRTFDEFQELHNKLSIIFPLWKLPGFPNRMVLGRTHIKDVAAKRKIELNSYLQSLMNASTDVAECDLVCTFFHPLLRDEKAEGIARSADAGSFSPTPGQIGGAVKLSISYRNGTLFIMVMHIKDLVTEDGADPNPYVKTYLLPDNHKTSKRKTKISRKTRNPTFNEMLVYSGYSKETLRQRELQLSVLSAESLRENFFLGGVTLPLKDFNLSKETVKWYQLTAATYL
Chain of Serine/threonine-protein kinase A-Raf (Homo sapiens) (P10398 whole entry): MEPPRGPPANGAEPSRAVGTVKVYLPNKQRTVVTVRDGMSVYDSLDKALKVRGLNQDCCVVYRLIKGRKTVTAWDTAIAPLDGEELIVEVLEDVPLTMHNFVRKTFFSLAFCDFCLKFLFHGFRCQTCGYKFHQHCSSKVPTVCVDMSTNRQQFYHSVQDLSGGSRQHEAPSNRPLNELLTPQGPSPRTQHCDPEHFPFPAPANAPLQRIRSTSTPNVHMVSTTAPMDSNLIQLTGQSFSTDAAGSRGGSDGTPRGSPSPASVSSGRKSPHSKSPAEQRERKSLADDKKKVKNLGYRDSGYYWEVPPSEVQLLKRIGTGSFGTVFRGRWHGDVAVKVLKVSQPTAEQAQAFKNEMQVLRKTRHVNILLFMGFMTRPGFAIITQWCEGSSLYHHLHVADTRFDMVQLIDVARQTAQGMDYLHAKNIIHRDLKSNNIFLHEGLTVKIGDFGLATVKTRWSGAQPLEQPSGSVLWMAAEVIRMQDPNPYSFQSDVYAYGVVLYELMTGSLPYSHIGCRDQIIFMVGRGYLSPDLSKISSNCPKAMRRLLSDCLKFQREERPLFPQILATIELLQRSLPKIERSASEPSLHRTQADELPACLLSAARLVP
Chain of Sodium-dependent dopamine transporter (Homo sapiens) (Q01959 whole entry): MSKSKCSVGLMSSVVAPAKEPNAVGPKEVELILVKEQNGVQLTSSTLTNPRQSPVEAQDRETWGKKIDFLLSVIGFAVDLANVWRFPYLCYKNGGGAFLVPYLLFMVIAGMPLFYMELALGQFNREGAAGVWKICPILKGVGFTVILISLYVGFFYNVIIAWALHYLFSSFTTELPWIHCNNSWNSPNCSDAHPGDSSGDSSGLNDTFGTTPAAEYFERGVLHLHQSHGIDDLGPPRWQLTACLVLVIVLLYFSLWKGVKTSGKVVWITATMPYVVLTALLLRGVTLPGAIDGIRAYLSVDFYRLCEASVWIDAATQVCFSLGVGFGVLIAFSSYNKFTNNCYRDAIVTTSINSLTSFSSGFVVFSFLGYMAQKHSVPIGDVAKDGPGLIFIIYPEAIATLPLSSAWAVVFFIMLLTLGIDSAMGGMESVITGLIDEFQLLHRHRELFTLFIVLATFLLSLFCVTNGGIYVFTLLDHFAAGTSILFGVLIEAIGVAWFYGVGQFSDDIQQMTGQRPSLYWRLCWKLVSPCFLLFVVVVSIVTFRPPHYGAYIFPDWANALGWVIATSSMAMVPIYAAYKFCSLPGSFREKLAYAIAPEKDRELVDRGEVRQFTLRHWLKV
Chain of Serine/threonine-protein kinase Nek4 (Homo sapiens) (P51957 whole entry, looked up): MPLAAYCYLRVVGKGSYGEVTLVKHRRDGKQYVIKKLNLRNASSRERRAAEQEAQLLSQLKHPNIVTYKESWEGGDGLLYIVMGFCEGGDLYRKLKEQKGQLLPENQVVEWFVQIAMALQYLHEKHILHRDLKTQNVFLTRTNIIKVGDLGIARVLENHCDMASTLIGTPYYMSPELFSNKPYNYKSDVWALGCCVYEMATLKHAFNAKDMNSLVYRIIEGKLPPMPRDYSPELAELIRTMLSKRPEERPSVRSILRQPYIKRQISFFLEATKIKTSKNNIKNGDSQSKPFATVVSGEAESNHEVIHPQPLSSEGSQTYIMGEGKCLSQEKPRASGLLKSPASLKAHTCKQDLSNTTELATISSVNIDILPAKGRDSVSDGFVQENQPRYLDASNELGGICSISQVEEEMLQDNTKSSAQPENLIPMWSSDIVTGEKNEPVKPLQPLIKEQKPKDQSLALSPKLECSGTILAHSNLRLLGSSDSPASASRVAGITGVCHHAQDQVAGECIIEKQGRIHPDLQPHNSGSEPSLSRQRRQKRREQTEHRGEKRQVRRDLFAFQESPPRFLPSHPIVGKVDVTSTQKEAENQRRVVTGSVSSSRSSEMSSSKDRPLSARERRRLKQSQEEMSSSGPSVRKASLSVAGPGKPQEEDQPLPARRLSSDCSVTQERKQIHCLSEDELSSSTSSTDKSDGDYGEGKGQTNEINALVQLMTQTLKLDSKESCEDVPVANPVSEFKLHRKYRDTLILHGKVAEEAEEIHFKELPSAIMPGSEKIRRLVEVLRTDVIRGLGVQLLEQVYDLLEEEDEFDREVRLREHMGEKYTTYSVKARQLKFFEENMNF
Chain of Serine/threonine-protein kinase 25 (Homo sapiens) (O00506 whole entry, looked up): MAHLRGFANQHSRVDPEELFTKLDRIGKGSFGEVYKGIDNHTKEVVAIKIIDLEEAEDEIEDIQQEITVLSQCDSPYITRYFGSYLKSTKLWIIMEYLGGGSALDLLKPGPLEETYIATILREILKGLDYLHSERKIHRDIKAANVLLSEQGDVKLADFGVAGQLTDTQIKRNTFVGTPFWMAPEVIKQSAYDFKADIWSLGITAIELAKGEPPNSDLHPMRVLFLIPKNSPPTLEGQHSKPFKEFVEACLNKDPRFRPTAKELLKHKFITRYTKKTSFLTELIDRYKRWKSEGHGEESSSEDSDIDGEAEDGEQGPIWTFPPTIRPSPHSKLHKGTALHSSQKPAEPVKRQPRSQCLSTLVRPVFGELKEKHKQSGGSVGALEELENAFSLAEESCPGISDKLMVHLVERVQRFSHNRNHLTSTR

CN1CCN(c2cnc3c(C4CCN(C(=O)c5ccc(OC(F)(F)F)cc5N)CC4)ncnc3c2)CC1 [BAY-885]
inactive: inhibition [1] -4.2% | % residual kinase activity [2] 105% | % residual kinase activity [3] 87% | % residual kinase activity [4] 93% | % residual kinase activity [5] 108% | % residual kinase activity [6] 96% | % residual kinase activity [7] 106% | % residual kinase activity [8] 106% | % residual kinase activity [9] 112% | % residual kinase activity [10] 103% | % residual kinase activity [11] 96% | % residual kinase activity [12] 114% | % residual kinase activity [13] 115% | % residual kinase activity [14] 96% | % residual kinase activity [15] 111%
